Earlier results, collected in US20030054020A1, “Method and composition for reducing sebum secretion in mammals” (priority 2001, published 2003).

Tested on: human sebaceous glands

SMILES: CC1=C(/C=C/C(C)=C/C=C/C(C)=C\C(=O)O)C(C)(C)CCC1 [13-cis-retinoic acid]
- Reduction of the size of human sebaceous glands: up to 90%
